The text below walks through data of patent US11325938B2, “CD73 inhibitors” (ORIC Pharmaceuticals, Inc., priority 2018, dated 2022).

Bounds are passed on as bounds.

The target of this test is CD73 (Homo sapiens (Human), UniProt P21589). The test is described as follows: Biochemical assay: inhibition of CD73 activity (AMP hydrolysis, Malachite Green readout). The note with it: CD73 0.3208 nM, AMP 15 μM, 25 mM Tris-HCl pH 7.4, RT, absorbance 620 nm. Summed up: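 Human CD73 (320 pM final) preincubated 15 min at RT with compounds (10-point ½-log titration from 100 μM, duplicates) in 25 mM Tris-HCl pH 7.4, 5 mM MgCl2, 0.01% Brij-35, 0.01% BSA. 15 μM AMP added, 10 min at RT; released phosphate read by Malachite Green absorbance; IC50 determined.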
Chain of CD73 (P21589 27-574): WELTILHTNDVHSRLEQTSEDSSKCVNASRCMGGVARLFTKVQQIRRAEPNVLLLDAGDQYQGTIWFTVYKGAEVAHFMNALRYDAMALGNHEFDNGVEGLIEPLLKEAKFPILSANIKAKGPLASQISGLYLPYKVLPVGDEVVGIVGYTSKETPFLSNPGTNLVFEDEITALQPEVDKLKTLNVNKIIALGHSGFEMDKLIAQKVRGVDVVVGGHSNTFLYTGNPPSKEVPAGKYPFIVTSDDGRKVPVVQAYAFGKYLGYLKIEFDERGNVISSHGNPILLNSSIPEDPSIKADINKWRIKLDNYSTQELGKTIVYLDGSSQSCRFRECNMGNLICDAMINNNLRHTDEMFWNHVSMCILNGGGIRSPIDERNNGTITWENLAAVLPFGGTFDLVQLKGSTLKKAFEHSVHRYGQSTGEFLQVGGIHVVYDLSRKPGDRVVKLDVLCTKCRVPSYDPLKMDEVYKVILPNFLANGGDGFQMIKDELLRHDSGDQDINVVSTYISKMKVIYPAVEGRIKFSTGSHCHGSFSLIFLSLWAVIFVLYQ
On to `O=P(O)(O)C(CO)OC[C@H]1O[C@@H](n2cnc3c(NC4CCCC4)nc(Cl)nc32)[C@H](O)[C@@H]1O` (stereo partly drawn) [Example 75, (1-(((2R,3S,4R,5R)-5-(2-chloro-6-(cyclopentylamino)-9H-purin-9-yl)-3,4-dihydroxytetrahydrofuran-2-yl)methoxy)-2-hydroxyethyl)phosphonic acid], for which the IC50 is no more than 100 nM. The figure for `CC(CO)(OC[C@H]1O[C@@H](n2cnc3c(NC4CCCC4)nc(Cl)nc32)[C@H](O)[C@@H]1O)P(=O)(O)O` (stereo partly drawn) [Example 76, (2-(((2R,3S,4R,5R)-5-(2-chloro-6-(cyclopentylamino)-9H-purin-9-yl)-3,4-dihydroxytetrahydrofuran-2-yl)methoxy)-1-hydroxypropan-2-yl)phosphonic acid] is no more than 100 nM; for `COCC(C)(OC[C@H]1O[C@@H](n2ncc3c(N[C@@H]4CCc5ccccc54)nc(Cl)nc32)[C@H](O)[C@@H]1O)P(=O)(O)O` (stereo partly drawn) [Example 77, (2-(((2R,3S,4R,5R)-5-(6-chloro-4-(((R)-2,3-dihydro-1H-inden-1-yl)amino)-1H-pyrazolo[3,4-d]pyrimidin-1-yl)-3,4-dihydroxytetrahydrofuran-2-yl)methoxy)-1-methoxypropan-2-yl)phosphonic acid] it is no more than 100 nM. The same measure for `CC(CO)(OC[C@H]1O[C@@H](n2nnc3c(N[C@@H]4CCc5ccccc54)nc(Cl)nc32)[C@H](O)[C@@H]1O)P(=O)(O)O` (stereo partly drawn) [Example 78, (2-(((2R,3S,4R,5R)-5-(5-chloro-7-(((R)-2,3-dihydro-1H-inden-1-yl)amino)-3H-[1,2,3]triazolo[4,5-d]pyrimidin-3-yl)-3,4-dihydroxytetrahydrofuran-2-yl)methoxy)-1-hydroxypropan-2-yl)phosphonic acid]: no more than 100 nM; for `COCC(C)(OC[C@H]1O[C@@H](n2ncc3c(NCC4CC4)nc(Cl)nc32)[C@H](O)[C@@H]1O)P(=O)(O)O` (stereo partly drawn) [Example 79, (2-(((2R,3S,4R,5R)-5-(6-chloro-4-((cyclopropylmethyl)amino)-1H-pyrazolo[3,4-d]pyrimidin-1-yl)-3,4-dihydroxytetrahydrofuran-2-yl)methoxy)-1-methoxypropan-2-yl)phosphonic acid]: no more than 100 nM.

In turn, `O=P(O)(O)C(OC[C@H]1O[C@@H](n2ncc3c(NC4CCCC4)nc(Cl)nc32)[C@H](O)[C@@H]1O)C(F)(F)F` (stereo partly drawn) [Example 80, (1-(((2R,3S,4R,5R)-5-(6-chloro-4-(cyclopentylamino)-1H-pyrazolo[3,4-d]pyrimidin-1-yl)-3,4-dihydroxytetrahydrofuran-2-yl)methoxy)-2,2,2-trifluoroethyl)phosphonic acid] gave an IC50 of 100 to 1000 nM. With `CN(C)CC(C)(OC[C@H]1O[C@@H](n2ncc3c(NC4CCCC4)nc(Cl)nc32)[C@H](O)[C@@H]1O)P(=O)(O)O` (stereo partly drawn) [Example 81, (2-(((2R,3S,4R,5R)-5-(6-chloro-4-(cyclopentylamino)-1H-pyrazolo[3,4-d]pyrimidin-1-yl)-3,4-dihydroxytetrahydrofuran-2-yl)methoxy)-1-(dimethylamino)propan-2-yl)phosphonic acid], the IC50 is greater than 1000 nM. For `COCC(C)(OC[C@H]1O[C@@H](n2nnc3c(NC4CCCC4)nc(Cl)nc32)[C@H](O)[C@@H]1O)P(=O)(O)O` (stereo partly drawn) [Example 82, (2-(((2R,3S,4R,5R)-5-(5-chloro-7-(cyclopentylamino)-3H-[1,2,3]triazolo[4,5-d]pyrimidin-3-yl)-3,4-dihydroxytetrahydrofuran-2-yl)methoxy)-1-methoxypropan-2-yl)phosphonic acid], the IC50 is no more than 100 nM. The figure for `O=P(O)(O)CS(=O)(=O)C[C@H]1O[C@@H](n2nnc3c(N[C@@H]4CCc5ccccc54)cc(Cl)nc32)[C@H](O)[C@@H]1O` [Example 83] is no more than 100 nM; for `O=P(O)(O)C(CO)(Cc1nn[nH]n1)OC[C@H]1O[C@@H](n2ncc3c(NC4CCCC4)nc(Cl)nc32)[C@H](O)[C@@H]1O` (stereo partly drawn) [Example 84, (2-(((2R,3S,4R,5R)-5-(6-Chloro-4-(cyclopentylamino)-1H-pyrazolo[3,4-d]pyrimidin-1-yl)-3,4-dihydroxytetrahydrofuran-2-yl)methoxy)-1-hydroxy-3-(2H-tetrazol-5-yl)propan-2-yl)phosphonic acid] it is no more than 100 nM. In turn, `CC(COCCO)(OC[C@H]1O[C@@H](n2ncc3c(NC4CCCC4)nc(Cl)nc32)[C@H](O)[C@@H]1O)P(=O)(O)O` (stereo partly drawn) [Example 85, (2-(((2R,3S,4R,5R)-5-(6-Chloro-4-(cyclopentylamino)-1H-pyrazolo[3,4-d]pyrimidin-1-yl)-3,4-dihydroxytetrahydrofuran-2-yl)methoxy)-1-(2-hydroxyethoxy)propan-2-yl)phosphonic acid] gave an IC50 of no more than 100 nM.

Consider `O=P(O)(O)C(CO)(CO)OC[C@H]1O[C@@H](n2ncc3c(NC4CCCC4)nc(Cl)nc32)[C@H](O)[C@@H]1O` [Example 86, [1-[[(2R,3S,4R,5R)-5-[6-Chloro-4-(cyclopentylamino)pyrazolo[3,4-d]pyrimidin-1-yl]-3,4-dihydroxy-tetrahydrofuran-2-yl]methoxy]-2-hydroxy-1-(hydroxymethyl)ethyl]phosphonic acid], for which the IC50 was no more than 100 nM.

The compound `COCC(COC)(OC[C@H]1O[C@@H](n2ncc3c(NC4CCCC4)nc(Cl)nc32)[C@H](O)[C@@H]1O)P(=O)(O)O` [Example 87, [1-[[(2R,3S,4R,5R)-5-[6-Chloro-4-(cyclopentylamino)pyrazolo[3,4-d]pyrimidin-1-yl]-3,4-dihydroxy-tetrahydrofuran-2-yl]methoxy]-2-methoxy-1-(methoxymethyl)ethyl]phosphonic acid] gave an IC50 of no more than 100 nM. The same measure for `CC(CO)(OC[C@H]1O[C@@H](n2ncc3c(NC4CCCC4)nc(CCCO)nc32)[C@H](O)[C@@H]1O)P(=O)(O)O` (stereo partly drawn) [Example 88, 2-(((2R,3S,4R,5R)-5-(4-(Cyclopentylamino)-6-(3-hydroxypropyl)-1H-pyrazolo[3,4-d]pyrimidin-1-yl)-3,4-dihydroxytetrahydrofuran-2-yl)methoxy)-1-hydroxypropan-2-ylphosphonic acid]: no more than 100 nM; for `CC(CO)(OC[C@H]1O[C@@H](n2ncc3c(NC4CCCC4)nc(C#CCO)nc32)[C@H](O)[C@@H]1O)P(=O)(O)O` (stereo partly drawn) [Example 89, (2-(((2R,3S,4R,5R)-5-(4-(Cyclopentylamino)-6-(3-hydroxyprop-1-yn-1-yl)-1H-pyrazolo[3,4-d]pyrimidin-1-yl)-3,4-dihydroxytetrahydrofuran-2-yl)methoxy)-1-hydroxypropan-2-yl)phosphonic acid]: no more than 100 nM; for `COCC(C)(OC[C@H]1O[C@@H](n2ncc3c(NC4CCCC4)nc(CO)nc32)[C@H](O)[C@@H]1O)P(=O)(O)O` (stereo partly drawn) [Example 90, (2-(((2R,3S,4R,5R)-5-(4-(Cyclopentylamino)-6-(hydroxymethyl)-1H-pyrazolo[3,4-d]pyrimidin-1-yl)-3,4-dihydroxytetrahydrofuran-2-yl)methoxy)-1-methoxypropan-2-yl)phosphonic acid]: no more than 100 nM.

Consider `CC(CO)(OC[C@H]1O[C@@H](n2ccc3c(NC4CCCC4)nc(Cl)nc32)[C@H](O)[C@@H]1O)P(=O)(O)O` (stereo partly drawn) [Example 91, (2-(((2R,3S,4R,5R)-5-(2-Chloro-4-(cyclopentylamino)-7H-pyrrolo[2,3-d]pyrimidin-7-yl)-3,4-dihydroxytetrahydrofuran-2-yl)methoxy)-1-hydroxypropan-2-yl)phosphonic acid], for which the IC50 was no more than 100 nM. As for `O=P(O)(O)[C@](CO)(Cc1ncco1)OC[C@H]1O[C@@H](n2ncc3c(NC4CCCC4)nc(Cl)nc32)[C@H](O)[C@@H]1O` [Example 92, ((S)-2-(((2R,3S,4R,5R)-5-(6-chloro-4-(cyclopentylamino)-1H-pyrazolo[3,4-d]pyrimidin-1-yl)-3,4-dihydroxytetrahydrofuran-2-yl)methoxy)-1-hydroxy-3-(oxazol-2-yl)propan-2-yl)phosphonic acid], the IC50 was no more than 100 nM.

With `O=P(O)(O)C(CO)(Cc1ccccn1)OC[C@H]1O[C@@H](n2ncc3c(NC4CCCC4)nc(Cl)nc32)[C@H](O)[C@@H]1O` (stereo partly drawn) [Example 93, (2-(((2R,3S,4R,5R)-5-(6-chloro-4-(cyclopentylamino)-1H-pyrazolo[3,4-d]pyrimidin-1-yl)-3,4-dihydroxytetrahydrofuran-2-yl)methoxy)-1-hydroxy-3-(pyridin-2-yl)propan-2-yl)phosphonic acid], the IC50 is no more than 100 nM. The figure for `Cn1cnc(CC(CO)(OC[C@H]2O[C@@H](n3ncc4c(NC5CCCC5)nc(Cl)nc43)[C@H](O)[C@@H]2O)P(=O)(O)O)c1` (stereo partly drawn) [Example 94, (2-(((2R,3S,4R,5R)-5-(6-chloro-4-(cyclopentylamino)-1H-pyrazolo[3,4-d]pyrimidin-1-yl)-3,4-dihydroxytetrahydrofuran-2-yl)methoxy)-1-hydroxy-3-(1-methyl-1H-imidazol-4-yl)propan-2-yl)phosphonic acid] is 100 to 1000 nM; for `O=P(O)(O)C(CO)(COCC(F)(F)F)OC[C@H]1O[C@@H](n2ncc3c(NC4CCCC4)nc(Cl)nc32)[C@H](O)[C@@H]1O` (stereo partly drawn) [Example 95, (2-(((2R,3S,4R,5R)-5-(6-chloro-4-(cyclopentylamino)-1H-pyrazolo[3,4-d]pyrimidin-1-yl)-3,4-dihydroxytetrahydrofuran-2-yl)methoxy)-1-hydroxy-3-(2,2,2-trifluoroethoxy)propan-2-yl)phosphonic acid] it is no more than 100 nM; for `Cn1nnc(CC(CO)(OC[C@H]2O[C@@H](n3ncc4c(NC5CCCC5)nc(Cl)nc43)[C@H](O)[C@@H]2O)P(=O)(O)O)n1` (stereo partly drawn) [Example 96, (2-(((2R,3S,4R,5R)-5-(6-chloro-4-(cyclopentylamino)-1H-pyrazolo[3,4-d]pyrimidin-1-yl)-3,4-dihydroxytetrahydrofuran-2-yl)methoxy)-1-hydroxy-3-(2-methyl-2H-tetrazol-5-yl)propan-2-yl)phosphonic acid] it is no more than 100 nM.

As a reminder, the IC50 is the midpoint of a concentration-inhibition curve.
